Experimental data from patent US7241579B2, “Method of screening for GPR40 ligands” (SmithKline Beecham Corporation, priority 2000, dated 2007).
pEC50: −log10 of the molar value. Like-named read-outs stand apart in the source and are kept apart here.

Legend:
Format in all cases: cell-based
human GPR40 [1] = target: T1, human GPR40 (Homo sapiens, UniProt O14842); assay: FLIPR intracellular calcium response in HEK-293 cells transiently expressing GPR40; set-up: expressed in transfected cells; host or cells: HEK-293 (transient); settings: GPR40 stimulation
T1 sequence (O14842 whole entry): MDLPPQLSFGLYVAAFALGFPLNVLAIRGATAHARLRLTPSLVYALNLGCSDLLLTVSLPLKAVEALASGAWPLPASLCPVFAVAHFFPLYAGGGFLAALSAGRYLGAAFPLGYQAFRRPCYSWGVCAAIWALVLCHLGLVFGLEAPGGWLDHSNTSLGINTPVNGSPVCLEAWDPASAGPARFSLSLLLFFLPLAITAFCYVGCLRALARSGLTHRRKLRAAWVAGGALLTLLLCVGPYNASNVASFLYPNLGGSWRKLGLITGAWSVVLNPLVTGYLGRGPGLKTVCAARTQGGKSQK
Description: The Fluorometric Imaging Plate Reader (FLIPR™, Molecular Devices, UK) measures intracellular fluorescense in multi-well microplates. Where a GPCR couples to a calcium signalling pathway, the FLIPR system can be used with cells expressing the G-protein coupled receptor and containing calcium-sensitive fluorescent dyes, to monitor the intracellular calcium flux that occurs after activation of the G-coupled receptor. See, e.g., Kirk et al., J. Biomolecular Screening, 1:75 (1996).
(§1) The assays utilized a G-protein cocktail (+GPC) that contained chimeric and promiscuous G-proteins, as is known in the art of screening orphan G-protein coupled receptors.

[2] = tested on: CHO cells expressing CRE-luciferase with no receptor; assay: CRE-luciferase reporter in CHO cells containing reporter only (no receptor); settings: 4 hours of treatment
Protocol: (§2) Specific coupling was determined in mammalian cells using transient expression of a CRE-luciferase reporter for Gαs and stable cell-lines containing Gal4/ELK-1-luciferase reporter for Gαq/Gαi. Wild-type CHO cells were co-transfected with 3×-CRE-luciferase reporter vector and various amounts of an expression vector for GPR40. The control cells were transfected with reporter vector only. The reporter gene plasmids were produced in house but similar vectors can be purchased from Stratagene ([…]®). Cells were plated in a 24 well tissue culture plate at 1×10^4 cells/well in DMEM/F12 supplemented with 5% FBS. After 72 hours at 37° C., 5% CO2, the cells were transfected using the liposomal transfection reagent sold under the trademark LIPOFECTAME® and with the following combinations of plasmids: • A-3×-CRE-Luc • B-3×-CRE-Luc+CMV-GPR40 • C-3×-CRE-Luc+CMV-Gs coupled receptor The concentration of reporter plasmid for all wells was 0.15 μg/well. Concentrations of receptor plasmids were 0.5, 1.0, 5.0, 10.0 ng/well. After 24 hrs Cells containing 1 ng/well of receptor plasmid or no DNA control and CRE-Luc reporter were treated with fatty acid or the calcitonin which is known to act through a Gs-coupled receptor (Chakraborty, Science 251: 1078 (1991)) at concentrations indicated. […]

human GPR40 [3] = target: T1, human GPR40; assay: GAL4/Elk-1-luciferase reporter in CHO clones transfected with human GPR40, with and without pertussis toxin; set-up: expressed in transfected cells
Description: (§3) To further test the coupling of GPR40 to Gαi/Gαq a Gal4/Elk-1 reporter was used. A stable, clonal reporter line was created by transfecting CHO cells with a plasmid that contains an expression construct for GAL4/Elk-1 and a GAL4-luciferase reporter construct. A similar reporter system can now be purchased from Stratagene (under the trademark […]®). An expression construct for human GPR40 which contains a G418 resistance construct was transfected into the host CHO GAL4/Elk-1 reporter cell line (10 ug plasmid DNA pCR3-GPR40) via electroporation. The cell lines were selected for with 500 ug/mL G418 until all cells in the control were dead and clones were then picked. The Gal4/Elk-1 reporter can be activated through Gq or Gi. To confirm coupling via Gi, cells were treated with pertussis toxin treatment which ADP-ribosylates Gαi preventing its interaction with receptors (Bokoch et al., J. Biol. Chem 258:2072 (1983)). Pertussis toxin has no known effect on Gαq.
(§4) Host cells and those transfected with the GPR40 construct were plated in a 96-well tissue culture plate at 2000 cells/well in DMEM/F12 supplemented with 5% FBS. After 48 hours at 37° C. at 5% CO2, the cells were placed in serum-free DMEM/F12 in the presence or absence of 1 ug/ml pertussis toxin. After 16 hours at 37° C., 5% CO2 the host cells were treated with: lysophosphatidic acid (oleoyl) (LPA) which couples through GαI to activate MAP kinase (Hordijk et al., J. Biol. Chem. 269: 645 (1994)); thrombin which couples through Gαi and Gαq (Hung et al., J. Biol. Chem. 267:20831 (1992)); or 5,8,11-Eicosatriynoic acid (a GPR40 ligand), at the concentrations indicated. The host cells containing the GPR40 construct were stimulated with or 5,8,11-Eicosatriynoic acid at the concentrations indicated. Controls for lysophosphatidic acid contained 0.5% DMSO; controls for […] contained 0.05% ethanol. Luciferase activity was assayed 4 hours after treatment using a luciferase reporter gene assay kit available under the trademark LUCLITE®, as per manufacturers instructions (Packard Bioscience).

[4] = tested on: CHO cells containing GAL4/Elk1-luciferase reporter constructs; assay: GAL4/Elk-1-luciferase reporter in host CHO cells (reporter only), with and without pertussis toxin; settings: for agonist-stimulated reporter activity after pertussis toxin treatment: 1 ug/ml pertussis toxin 16 hours
Description: as §3, §4

human GPR40 [5] = target: T1, human GPR40; assay: CRE-luciferase reporter in CHO cells co-transfected with GPR40 expression vector; set-up: expressed in transfected cells; settings: CHO cells containing GPR40 and CRE-Luc reporter, 4 hours of treatment
Protocol: as §2

PGRW = assay: FLIPR calcium response in HEK-293 cells transiently expressing the 7TM receptor PGRW (GPRW); settings: HEK-293 cells transiently expressing PGRW, + G-protein cocktail
Description: as §1

HLTEX11 = assay: FLIPR calcium response in HEK-293 cells transiently expressing the 7TM receptor HLTEX11; settings: HEK-293 cells transiently expressing HLTEX11, + G-protein cocktail
Description: as §1

[6] = FLIPR, Additional Fatty Acid Compounds, read-out: EC50 uM
[7] = FLIPR, Additional Fatty Acid Compounds, read-out: EC50
[8] = FLIPR, first of up to 3 experiments, read-out: Mean pEC50 (converted)
[9] = FLIPR, second of up to 3 experiments, read-out: Mean pEC50 (converted)
[10] = FLIPR, third experiment, read-out: Mean pEC50 (converted)
[11] = Mean pEC50 of 3 expts, FLIPR, overall mean (n = 1 or 2 where stated)
[12] = Mean pEC50, FLIPR, first of up to 3 experiments
[13] = Mean pEC50, FLIPR, second of up to 3 experiments
[14] = EC50 uM, FLIPR, Additional Fatty Acid Compounds
[15] = EC50 (M), FLIPR, Additional Fatty Acid Compounds

| Compound | EC50 (human GPR40 [1]; [6]) [µM] | pEC50 (human GPR40 [1]; [7]) | EC50 (human GPR40 [1]; [8]) [µM] | EC50 (human GPR40 [1]; [9]) [µM] | EC50 (human GPR40 [1]; [10]) [µM] | pEC50 (human GPR40 [1]; [11]) | other results |
| --- | --- | --- | --- | --- | --- | --- | --- |
| CCCCCCCCC#CCC#CCC#CCCCC(=O)O [5,8,11-Eicosatriynoic acid] | 1.7 | 5.77 | – | – | – | – | luciferase production (CRE-luciferase) [2]: no effect; agonist-stimulated luciferase activity after pertussis toxin treatment (human GPR40 [3]; cells containing GPR40, 1 ug/ml pertussis toxin 16 hours): not inhibited; luciferase activity compared to basal (GAL4/Elk-1 reporter) (human GPR40 [3]; cells containing GPR40, 4 hours after treatment): increased luciferase activity; luciferase production (GAL4/Elk-1 reporter) ([4]; 4 hours after treatment): no effect; luciferase production (CRE-luciferase) (human GPR40 [5]): no effect |
| C#CCCCCCCCCCCCCCCCC(=O)O [17-Octadecynoic acid] | 7.6 | 5.12 | – | – | – | – | – |
| CCCCC/C=C\C/C=C\C/C=C\C/C=C\CCCC(=O)O [Arachidonic acid] | 9.1 | 5.04 | 18.2 | 12.9 | 7.24 | 4.92 | – |
| CCCCCCCCCCCCCCCCCCCCCC(=O)O [Behenic acid] | – | – | – | 49 | – | 4.30 | pEC50 (human GPR40 [1]; [12]): 4.29 |
| CCCCCCCCCC(=O)O [Capric acid] | – | – | 18.2 | 11 | 14.5 | 4.85 | – |
| CCCCCCCC(=O)O [Caprylic acid] | – | – | – | – | – | 4.42 | pEC50 (human GPR40 [1]; [12]): 4.25; pEC50 (human GPR40 [1]; [13]): 4.58 |
| CCCCC/C=C\C/C=C\C/C=C\CCCCCCC(=O)O [Dihomo-gamma-linolenic acid] | 7.2 | 5.14 | – | – | – | – | – |
| CC/C=C\C/C=C\C/C=C\C/C=C\C/C=C\CCCCCC(=O)O [Docosa-7Z,10Z,13Z,16Z,19Z-pentaenoic acid] | 4.7 | 5.33 | – | – | – | – | – |
| CC/C=C\C/C=C\C/C=C\CCCCCCCCCCCC(=O)O [Docosa-13Z,16Z,19Z-trienoic acid] | 6.8 | 5.17 | – | – | – | – | – |
| CC/C=C\C/C=C\C/C=C\C/C=C\C/C=C\CCCC(=O)O [Eicosa-5Z,8Z,11Z,14Z,17Z-pentaenoic acid] | 6.8 | 5.17 | – | – | – | – | – |
| CCCCCCCCCCC/C=C\C/C=C\CCCC(=O)O [Eicosa-5Z,8Z-dienoic acid] | 7.8 | 5.11 | – | – | – | – | – |
| CC/C=C\C/C=C\C/C=C\CCCCCCCCCC(=O)O [Eicosa-11Z,14Z,17Z-trienoic acid] | 11.2 | 4.95 | – | – | – | – | – |
| CCCCC/C=C\C/C=C\CCCCCCCCCC(=O)O [Eicosa-11Z,14Z-dienoic acid] | 10.7 | 4.97 | – | – | – | – | – |
| CCCCCCCC/C=C/CCCCCCCC(=O)O [Elaidic acid] | – | – | – | – | – | – | FLIPR calcium response (PGRW): No response was detected; FLIPR calcium response (HLTEX11): No response was detected |
| CCCCCCCCCCCCCCCCCCCCC(=O)O [Heneicosanoic acid] | – | – | 35.5 | 29.5 | – | 4.49 | – |
| CCCCCCCCCCCCCCCCC(=O)O [Heptadecanoic acid] | – | – | 13.8 | 10.2 | 7.76 | 4.99 | – |

| Compound | EC50 (human GPR40 [1]; [6]) [µM] | pEC50 (human GPR40 [1]; [7]) | EC50 (human GPR40 [1]; [8]) [µM] | EC50 (human GPR40 [1]; [9]) [µM] | EC50 (human GPR40 [1]; [10]) [µM] | pEC50 (human GPR40 [1]; [11]) | other results |
| --- | --- | --- | --- | --- | --- | --- | --- |
| CCCCCCC(=O)O [Heptanoic acid] | – | – | 46.8 | 60.3 | – | 4.28 | – |
| CCCCCCCC/C=C\CCCCCCCC(=O)OC[C@@H](O)COP(=O)(O)O [LPA, lysophosphatidic acid (oleoyl)] | – | – | – | – | – | – | agonist-stimulated reporter activity after pertussis toxin treatment [4]: completely abolished |
| CCCCCCCCCCCC(=O)O [Lauric acid] | – | – | 17.8 | 11.7 | 8.51 | 4.92 | – |
| CCCCC/C=C\C/C=C\CCCCCCCC(=O)O [Linoleic acid] | – | – | – | – | – | 4.73 | EC50 (human GPR40 [1]; [14]): 9.5 µM; EC50 (human GPR40 [1]; [15]): 9.54 µM; pEC50 (human GPR40 [1]; [12]): 4.78; pEC50 (human GPR40 [1]; [13]): 4.68 |
| CC/C=C\C/C=C\C/C=C\CCCCCCCC(=O)O [Linolenic acid] | – | – | – | – | – | 4.90 | EC50 (human GPR40 [1]; [14]): 5.5 µM; EC50 (human GPR40 [1]; [15]): 5.5 µM; pEC50 (human GPR40 [1]; [12]): 4.93; pEC50 (human GPR40 [1]; [13]): 4.66; pEC50 (human GPR40 [1]; Mean pEC50, FLIPR, third experiment): 5.12 |
| CCCCCCCCCCCCCCCCCCC(=O)O [Nonadecanoic acid] | – | – | 26.3 | 34.7 | – | 4.52 | – |
| CCCCCCCCC(=O)O [Nonanoic acid] | – | – | – | – | – | 4.40 | pEC50 (human GPR40 [1]; [12]): 4.16; pEC50 (human GPR40 [1]; [13]): 4.63 |
| CCCCCCCCCCCCCCCC(=O)O [Palmitic acid] | – | – | 8.32 | 3.09 | 5.01 | 5.30 | – |
| CCCCCC/C=C\CCCCCCCC(=O)O [Palmitoleic acid] | – | – | 15.1 | 15.5 | 11 | 4.86 | – |
| CCCCCCCCCCCCCCC(=O)O [Pentadeconoic acid] | – | – | 10.7 | 4.37 | 6.17 | 5.18 | – |
| CCCCCCCCCCCCCCCCCC(=O)O [Stearic acid] | – | – | 20 | 16.6 | 14.1 | 4.78 | – |
| CCCCCCCCCCC(=O)O [Undecanoic acid] | – | – | 25.1 | 21.9 | 14.8 | 4.70 | – |
| CCC=CCC=CCC=CCC=CCC=CC/C=C\CCC(=O)O [cis-4,7,10,13,16,19-Docosahexaenoic acid] | 1.6 | 5.79 | 6.61 | 2.95 | 3.98 | 5.37 | – |
| calcitonin | – | – | – | – | – | – | luciferase production (CRE-luciferase) [2]: increase in luciferase production; luciferase production (CRE-luciferase) (human GPR40 [5]): increase in luciferase production |
| pertussis toxin | – | – | – | – | – | – | decrease of basal reporter activity following pertussis toxin treatment (human GPR40 [3]; GPR40 clones, 1 ug/ml pertussis toxin): up to 70% |
| thrombin | – | – | – | – | – | – | agonist-stimulated reporter activity after pertussis toxin treatment [4]: only partially attenuated |
